Numbering of substitutions follows the chain as printed.

Type in all cases: biochemical
For assay [1], the target named is T1, HvExoI W286F/W434A mutant (Hordeum vulgare, UniProt Q9XEI3, W311F/W459A).
T1 sequence (Q9XEI3 26-630 W311F/W459A): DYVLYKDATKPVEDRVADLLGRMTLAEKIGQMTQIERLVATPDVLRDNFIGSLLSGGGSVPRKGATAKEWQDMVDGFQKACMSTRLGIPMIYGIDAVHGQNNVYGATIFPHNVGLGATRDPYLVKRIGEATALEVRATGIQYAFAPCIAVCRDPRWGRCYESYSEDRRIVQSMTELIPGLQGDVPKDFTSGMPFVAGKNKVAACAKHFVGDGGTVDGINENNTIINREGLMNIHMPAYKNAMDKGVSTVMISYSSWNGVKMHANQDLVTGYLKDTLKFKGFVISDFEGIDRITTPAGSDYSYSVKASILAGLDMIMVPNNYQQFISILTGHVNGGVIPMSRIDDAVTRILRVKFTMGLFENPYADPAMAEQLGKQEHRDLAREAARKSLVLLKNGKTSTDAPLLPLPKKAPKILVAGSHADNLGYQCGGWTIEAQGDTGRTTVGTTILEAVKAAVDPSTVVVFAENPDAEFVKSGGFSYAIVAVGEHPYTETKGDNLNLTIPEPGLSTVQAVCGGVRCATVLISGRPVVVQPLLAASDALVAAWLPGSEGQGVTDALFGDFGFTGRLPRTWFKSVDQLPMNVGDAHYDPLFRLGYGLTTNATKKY
The assay is described as follows: Relative rates of hydrolysis of poly-, oligosaccharides and aryl-glycosides. The conditions noted are these: substance is the substrate, nd = activity not detected. In a few lines:
(§1)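 Relative hydrolysis rates on β-linked poly-, oligosaccharides and aryl-glucosides used 50 pmoles of near-homogeneous HvExoI. Kinetic constants came from Michaelis-Menten plots by proportionally weighted nonlinear regression. pH (McIlvaine, 3.5–8.5, 30 °C) and temperature (100 mM sodium acetate pH 5.25, 0–80 °C, 15 min) profiles used 0.2% (w/v) 4NP-Glc.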

The target of assay [2] is T2, HvExoI W286F/W434F mutant (Hordeum vulgare, UniProt Q9XEI3, W311F/W459F).
T2 sequence (Q9XEI3 26-630 W311F/W459F): T1 sequence (Q9XEI3 26-630 W311F/W459A) with A434F
The description is as above. As to conditions: substance is the substrate, nd = activity not detected. The method in brief: as §1

The target of the next assay is T3, HvExoI W434A mutant (Hordeum vulgare, UniProt Q9XEI3, W459A).
T3 sequence (Q9XEI3 26-630 W459A): T1 sequence (Q9XEI3 26-630 W311F/W459A) with F286W
Described as above. The conditions noted are these: substance is the substrate, nd = activity not detected. The method in brief: as §1

Another assay deals with T4, HvExoI W434Y mutant (Hordeum vulgare, UniProt Q9XEI3, W459Y).
T4 sequence (Q9XEI3 26-630 W459Y): T1 sequence (Q9XEI3 26-630 W311F/W459A) with F286W, A434Y
The assay is described as above. The conditions noted are these: substance is the substrate, nd = activity not detected. In a few lines: as §1

For the next assay, the target named is WT HvExoI (Hordeum vulgare, UniProt Q9XEI3). Description: Steady-state apparent kinetic constants with substrates. As to conditions: substance is the substrate. Here is the method:
Dependency of activities of WT and mutant HvExoI on pH (McIlvaine buffers in the pH range of 3.5–8.5 at 30 °C) and temperature (100 mM sodium acetate buffer, pH 5.25, temperature range 0–80 °C, 15 min incubations) were determined using 0.2% (w/v) 4NP-Glc[21],[59]. Relative rates of hydrolysis of β-linked poly-, oligosaccharides, and aryl-glucosides were determined using near-homogenous HvExoI at 50 pmoles. […] Kinetic parameters were calculated from the analyses of Michaelis-Menten plots with Grafit 7.0.3[62] and processed by a proportional weighted fit, using nonlinear regression. The relative rates of hydrolysis, kinetic, and inhibition data were rounded to one or two decimal points (Supplementary Tables 2–4).

Chain of WT HvExoI (Q9XEI3 entry or part of it): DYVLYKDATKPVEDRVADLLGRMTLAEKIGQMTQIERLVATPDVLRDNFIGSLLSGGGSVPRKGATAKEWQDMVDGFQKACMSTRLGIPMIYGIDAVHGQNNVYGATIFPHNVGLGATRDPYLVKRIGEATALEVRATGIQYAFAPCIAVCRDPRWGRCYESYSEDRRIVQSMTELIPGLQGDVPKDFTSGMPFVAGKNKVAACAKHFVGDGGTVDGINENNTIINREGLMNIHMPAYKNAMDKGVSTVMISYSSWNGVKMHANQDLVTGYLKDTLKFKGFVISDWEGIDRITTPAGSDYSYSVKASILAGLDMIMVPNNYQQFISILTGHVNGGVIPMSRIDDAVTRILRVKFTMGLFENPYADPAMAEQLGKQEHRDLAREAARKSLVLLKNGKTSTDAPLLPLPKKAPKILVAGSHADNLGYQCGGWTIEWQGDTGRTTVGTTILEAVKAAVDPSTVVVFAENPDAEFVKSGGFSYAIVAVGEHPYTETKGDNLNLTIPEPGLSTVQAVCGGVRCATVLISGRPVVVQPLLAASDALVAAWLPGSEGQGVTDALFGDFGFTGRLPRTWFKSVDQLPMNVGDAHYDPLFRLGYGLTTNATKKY

For laminarin, the “Activity (relative rate of hydrolysis)” value in assay [1] is reported as 0.1 ± 0.003 μmole/min per mg protein; in assay [2], 0.2 ± 0.01 μmole/min per mg protein; at HvExoI W434A mutant, “no activity”; on HvExoI W434Y mutant it was 0.7 ± 0.03 μmole/min per mg protein. Further, the Km on WT HvExoI was found to be 200 ± 20 µM. Further, the kcat at WT HvExoI was determined as 42.1 ± 7.6 s⁻¹.

As for `OC[C@H]1O[C@@H](O[C@@H]2[C@@H](O)[C@H](O[C@H]3[C@H](O)[C@@H](CO)OC(O)[C@@H]3O)O[C@H](CO)[C@H]2O)[C@H](O)[C@@H](O)[C@@H]1O` (some centres unmarked) [Laminaritriose], the “Activity (relative rate of hydrolysis)” value in assay [1] was 0.1 ± 0.002 μmole/min per mg protein; in assay [2], 0.5 ± 0.04 μmole/min per mg protein; at HvExoI W434A mutant, 0.9 ± 0.1 μmole/min per mg protein; on HvExoI W434Y mutant, 1.4 ± 0.2 μmole/min per mg protein.

As to `OC[C@H]1O[C@@H](O[C@H]2[C@H](O)[C@@H](CO)OC(O)[C@@H]2O)[C@H](O)[C@@H](O)[C@@H]1O` (some centres unmarked) [Laminaribiose], the “Activity (relative rate of hydrolysis)” value in assay [1] is given as 0.1 ± 0.001 μmole/min per mg protein; in assay [2], 0.5 ± 0.1 μmole/min per mg protein; at HvExoI W434A mutant, 0.5 ± 0.03 μmole/min per mg protein; on HvExoI W434Y mutant, 1.1 ± 0.1 μmole/min per mg protein. In addition, at WT HvExoI, the Km came to 1300 ± 120 µM. For the same compound, the kcat on WT HvExoI was 54.2 ± 6.9 s⁻¹.

For the compound `OC[C@H]1O[C@@H](O[C@@H]2[C@@H](O)[C@H](O[C@@H]3[C@@H](O)[C@H](O[C@@H]4[C@@H](O)[C@H](O[C@@H]5[C@@H](O)[C@H](O[C@@H]6[C@@H](O)[C@H](O[C@@H]7[C@@H](O)[C@H](O)O[C@H](CO)[C@H]7O)O[C@H](CO)[C@H]6O)O[C@H](CO)[C@H]5O)O[C@H](CO)[C@H]4O)O[C@H](CO)[C@H]3O)O[C@H](CO)[C@H]2O)[C@H](O)[C@@H](O)[C@@H]1O` [Laminariheptaose], the “Activity (relative rate of hydrolysis)” value is reported as 0.1 ± 0.004 μmole/min per mg protein in assay [1], 0.5 ± 0.04 μmole/min per mg protein in assay [2], 1.0 ± 0.1 μmole/min per mg protein on HvExoI W434A mutant and 1.3 ± 0.1 μmole/min per mg protein at HvExoI W434Y mutant.

For orientation: Km means the substrate concentration at which the rate is half of its maximum. For orientation: kcat means the maximal rate divided by the concentration of active sites.
